Columns and labels:
Format in all cases: cell-based
[1] = target: T1, recombinant human serotonin transporter (Homo sapiens, UniProt P31645); assay: Serotonin functional uptake assay for human reuptake transporter; details: [3H]serotonin uptake, HEK-293 cells expressing human serotonin transporter; read-out: Human IC50 (nM) SERT
T1 construct: expressed in transfected cells; host or cells: HEK-293
Method: Serotonin Functional Uptake Assay for Human Reuptake Transporter
HEK-293 cells expressing human serotonin transporter were plated before the assay. […] Cells with internalized [^3H]serotonin were washed and the amount of tritium taken into cells is counted using a liquid scintillation counter to determine [^3H]serotonin uptake.

[2] = target: T2, recombinant human norepinephrine transporter (Homo sapiens, UniProt P23975); assay: Norepinephrine functional uptake assay for human reuptake transporter; details: [3H]norepinephrine uptake, HEK293 or MDCK cells expressing human norepinephrine transporter; read-out: Human IC50 (nM) NET
T2 construct: expressed in transfected cells; host or cells: HEK293 or MDCK
Method: Norepinephrine Functional Uptake Assay for Human Reuptake Transporter
The cells were plated before the assay. Test compound and/or vehicle was preincubated with cells in modified HEPES buffer pH 7.1 or pH 7.4 for 20 minutes at 18 to 25° C. . […] After the cells were washed to remove [^3H]norepinephrine not internalized, the cells were lysed, and the amount of tritium in the cell lysate was measured using a liquid scintillation counter to determine [^3H]norepinephrine uptake. Non-specific binding of tritium was measured in a control reaction containing 10 μM imipramine (or 10 μM nisoxetine), and was subtracted from the counts for assays to correct for non-specific binding of tritium. Reduction of [^3H]norepinephrine uptake by 50 percent or more (≧50%) relative to an uninhibited control reaction indicates significant inhibitory activity.

[3] = target: T3, recombinant human dopamine transporter (Homo sapiens, UniProt Q01959); assay: Dopamine functional uptake assay for human reuptake transporter; details: [3H]dopamine uptake, CHO-K1 or HEK293 cells expressing human dopamine transporter; read-out: Human IC50 (nM) DAT
T3 construct: expressed in transfected cells; host or cells: CHO-K1 or HEK293
Method: Dopamine Functional Uptake Assay for Human Reuptake Transporter
Either CHO-K1 or HEK293 cells expressing human recombinant dopamine transporter were plated before the assay. Test compound and/or vehicle was preincubated with cells in modified HEPES buffer pH 7.1 or pH 7.4 for 20 minutes at 18 to 25° C. and 50 nM [^3H]dopamine was then added for an additional timed incubation period (10 to 30 minutes). After washing the cells to remove [^3H]dopamine not internalized, the cells were lysed, and the amount of tritium in the lysate was measured using a liquid scintillation counter to determine [^3H]dopamine uptake. Non-specific binding of tritium was measured in a control reaction containing 10 μM nomifensine, and was subtracted from the counts for assays to correct for non-specific binding of tritium. Reduction of [^3H]dopamine uptake by 50 percent or more (≧50%) relative to an uninhibited control reaction indicates significant inhibitory activity.

T1 sequence (P31645 whole entry): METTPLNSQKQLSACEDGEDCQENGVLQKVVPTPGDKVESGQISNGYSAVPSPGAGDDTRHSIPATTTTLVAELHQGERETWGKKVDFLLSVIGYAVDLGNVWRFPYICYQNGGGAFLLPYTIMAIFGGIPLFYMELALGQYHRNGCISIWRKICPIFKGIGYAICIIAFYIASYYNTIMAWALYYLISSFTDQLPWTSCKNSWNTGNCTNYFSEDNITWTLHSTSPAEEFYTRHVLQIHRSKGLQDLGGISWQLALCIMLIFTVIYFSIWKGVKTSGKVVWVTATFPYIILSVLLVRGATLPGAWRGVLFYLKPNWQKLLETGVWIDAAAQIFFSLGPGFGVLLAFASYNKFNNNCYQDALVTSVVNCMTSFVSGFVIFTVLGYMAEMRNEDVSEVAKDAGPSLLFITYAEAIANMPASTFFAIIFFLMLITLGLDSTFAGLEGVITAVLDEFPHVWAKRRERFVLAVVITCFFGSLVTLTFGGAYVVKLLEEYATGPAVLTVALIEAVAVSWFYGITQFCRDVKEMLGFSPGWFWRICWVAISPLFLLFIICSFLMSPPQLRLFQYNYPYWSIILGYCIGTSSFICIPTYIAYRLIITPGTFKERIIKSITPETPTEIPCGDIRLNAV
T2 sequence (P23975 whole entry): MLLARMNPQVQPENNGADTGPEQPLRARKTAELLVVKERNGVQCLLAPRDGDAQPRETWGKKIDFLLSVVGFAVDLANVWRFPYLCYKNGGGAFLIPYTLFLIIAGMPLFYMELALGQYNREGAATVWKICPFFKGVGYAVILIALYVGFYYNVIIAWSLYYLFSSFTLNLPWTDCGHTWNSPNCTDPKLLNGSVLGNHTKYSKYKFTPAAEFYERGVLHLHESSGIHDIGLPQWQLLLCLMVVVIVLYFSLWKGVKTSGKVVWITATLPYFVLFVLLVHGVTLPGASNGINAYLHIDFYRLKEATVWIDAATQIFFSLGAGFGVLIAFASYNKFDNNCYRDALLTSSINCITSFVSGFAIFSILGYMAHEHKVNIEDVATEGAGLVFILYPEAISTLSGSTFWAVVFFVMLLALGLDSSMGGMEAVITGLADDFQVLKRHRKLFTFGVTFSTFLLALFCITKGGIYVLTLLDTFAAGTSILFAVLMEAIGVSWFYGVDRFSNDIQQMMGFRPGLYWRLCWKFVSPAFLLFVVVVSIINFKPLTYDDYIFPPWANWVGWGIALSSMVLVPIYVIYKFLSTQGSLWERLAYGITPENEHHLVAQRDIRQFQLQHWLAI
T3 sequence (Q01959 whole entry): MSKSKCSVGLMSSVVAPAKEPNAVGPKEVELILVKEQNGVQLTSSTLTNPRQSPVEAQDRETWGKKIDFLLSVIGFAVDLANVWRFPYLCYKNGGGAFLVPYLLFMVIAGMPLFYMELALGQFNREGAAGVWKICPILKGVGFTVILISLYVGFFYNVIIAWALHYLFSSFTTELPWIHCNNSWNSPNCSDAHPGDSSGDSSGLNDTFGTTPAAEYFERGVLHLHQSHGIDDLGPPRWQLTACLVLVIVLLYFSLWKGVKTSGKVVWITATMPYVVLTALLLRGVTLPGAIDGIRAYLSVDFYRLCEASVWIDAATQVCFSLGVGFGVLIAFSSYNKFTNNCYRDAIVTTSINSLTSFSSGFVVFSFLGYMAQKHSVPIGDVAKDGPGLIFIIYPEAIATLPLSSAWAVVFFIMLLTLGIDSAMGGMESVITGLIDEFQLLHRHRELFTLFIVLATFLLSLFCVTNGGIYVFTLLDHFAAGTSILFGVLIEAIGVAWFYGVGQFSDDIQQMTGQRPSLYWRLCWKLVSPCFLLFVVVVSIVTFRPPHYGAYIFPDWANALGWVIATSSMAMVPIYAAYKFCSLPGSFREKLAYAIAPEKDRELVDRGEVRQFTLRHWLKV

Row | Compound | IC50 [1] [nM] | IC50 [2] [nM] | IC50 [3] [nM]
1 | CN[C@@H]1Cc2cccc(OC)c2[C@H](c2ccc(Cl)c(Cl)c2)C1 (single isomer, unassigned) [Compound 32b.1, 4-(3,4-dichlorophenyl)-5-methoxy-N-methyl-1,2,3,4-tetrahydronaphthalen-2-amine] | 359 | 2330 | 83
2 | CN[C@@H]1Cc2cccc(OC)c2[C@H](c2ccc(Cl)c(Cl)c2)C1 (single isomer, unassigned) [Compound 32b.2, 4-(3,4-dichlorophenyl)-5-methoxy-N-methyl-1,2,3,4-tetrahydronaphthalen-2-amine] | 307 | 2320 | 496
3 | CN[C@H]1Cc2cc(OC)ccc2[C@@H](c2ccc(Cl)c(Cl)c2)C1 (single isomer, unassigned) [Compound 32c.1, 4-(3,4-dichlorophenyl)-7-methoxy-N-methyl-1,2,3,4-tetrahydronaphthalen-2-amine] | 68 | 571 | 18
4 | CN[C@H]1Cc2cc(OC)ccc2[C@@H](c2ccc(Cl)c(Cl)c2)C1 (single isomer, unassigned) [Compound 32c.2, 4-(3,4-dichlorophenyl)-7-methoxy-N-methyl-1,2,3,4-tetrahydronaphthalen-2-amine] | 29 | 112 | 109
5 | CN[C@H]1Cc2cc(OC)ccc2[C@@H](c2ccc(Cl)c(Cl)c2)C1 (single isomer, unassigned) [Compound 32c.4, 4-(3,4-dichlorophenyl)-7-methoxy-N-methyl-1,2,3,4-tetrahydronaphthalen-2-amine] | 209 | 111 | 78
6 | COc1ccc2c(c1)C(c1ccc(Cl)c(Cl)c1)CC(N(C)C)C2 (single isomer, unassigned) [Compound 33a.1, 4-(3,4-dichlorophenyl)-6-methoxy-N,N-dimethyl-2,3,4-tetrahydronaphthalen-2-amine] | 475 | 2310 | 781
7 | COc1ccc2c(c1)C(c1ccc(Cl)c(Cl)c1)CC(N(C)C)C2 (single isomer, unassigned) [Compound 33a.2, 4-(3,4-dichlorophenyl)-6-methoxy-N,N-dimethyl-2,3,4-tetrahydronaphthalen-2-amine] | 156 | 2260 | 396
8 | COc1ccc2c(c1)C(c1ccc(Cl)c(Cl)c1)CC(N(C)C)C2 (single isomer, unassigned) [Compound 33a.3, 4-(3,4-dichlorophenyl)-6-methoxy-N,N-dimethyl-2,3,4-tetrahydronaphthalen-2-amine] | 207 | 1170 | 2290
9 | COc1ccc2c(c1)C(c1ccc(Cl)c(Cl)c1)CC(N(C)C)C2 (single isomer, unassigned) [Compound 33a.4, 4-(3,4-dichlorophenyl)-6-methoxy-N,N-dimethyl-2,3,4-tetrahydronaphthalen-2-amine] | 808 | 1700 | 1410
10 | COc1ccc2c(c1)C[C@H](N(C)C)C[C@@H]2c1ccc(Cl)c(Cl)c1 (single isomer, unassigned) [Compound 33c.1, 4-(3,4-dichlorophenyl)-7-methoxy-N,N-dimethyl-1,2,3,4-tetrahydronaphthalen-2-amine] | 24 | 943 | 194
11 | COc1ccc2c(c1)C[C@H](N(C)C)C[C@@H]2c1ccc(Cl)c(Cl)c1 (single isomer, unassigned) [Compound 33c.2, 4-(3,4-dichlorophenyl)-7-methoxy-N,N-dimethyl-1,2,3,4-tetrahydronaphthalen-2-amine] | 8 | 684 | 67
12 | COc1ccc2c(c1)C[C@H](N(C)C)C[C@@H]2c1ccc(Cl)c(Cl)c1 (single isomer, unassigned) [Compound 33c.3, 4-(3,4-dichlorophenyl)-7-methoxy-N,N-dimethyl-1,2,3,4-tetrahydronaphthalen-2-amine] | 616 | 906 | 83

— patent US8053603B2, “Tetralone-based monoamine reuptake inhibitors” (Sunovion Pharmaceuticals Inc., priority 2006, dated 2011)
